# Source: patent publication US6426343B1, “Preparation and use of a specific GABA-Aα5 receptor ligand for treatment of Alzheimer's disease” (Merck Sharp & Dohme Ltd., priority 1995, dated 2002)
# What was measured:
# Male PVG hooded rats = assay: Morris watermaze cognitive studies; type: in vivo, rat
# Protocol: FG 8094 was synthesised by the Merck, Sharp and Dohme Neuroscience Research Centre's medicinal chemistry group and was suspended in 0.5% CMC. Vehicle or FG 8094 was administered IP 30 mins before the beginning of the first training trial.
# Male PVG hooded rats (Bantin & Kingman, Hull U.K.), weighting approximately 300 g, were housed in groups of four with free access to food and water. The animals were maintained on a 12/12 h light-dark cycle, with the lights on at 07:00 h.
# The Morris watermaze consists of a white, fibre-glass circular pool, of diameter 2 m, filled with an opaque mixture of water and white dye (E308, Morton International) maintained at 26-28° C. […] A hidden platform (13×13 cm) submerged 2 cm below the water surface was placed in the middle of the NE quadrant.
# A closed-circuit video camera, fitted with a wide-angle lens, was mounted directly above the centre of the pool and connected to an image analyser which digitised the image. The digital information was relay to an Archimedes microcomputer running ‘Watermaze’ a software package supplied by Paul Fray LTD (Cambridge, UK). The software package provided the following measures: latency to reach the platform, length of path taken, average swimming speed, the time spent and the total distance travelled in the target quadrant.
# The rats were assigned to four treatment groups (n=8): Vehicle, 0. 1, 0.3, 1.0 mg/kg FG 8094. During the acquisition phase of the experiment all the groups were given four trials per day. During this time the hidden platform was submerged in the NE quadrant of the watermaze. The rat was taken from the home cage and placed into the watermaze at one of four quasi-randomly determined locations (‘North’, ‘East’, ‘South’, or ‘West’) with its head facing, and almost touching, the pool wall. Trials began when the rat was released by the experimenter and ended when the rat climbed onto the platform and the mean escape latency was recorded. The maximum trial length was 60 s. If by that time the rat had not climbed on to the platform the trial ended automatically, the experimenter placed the rat on the platform and an escape latency of 60 s was recorded. The rat remained on the platform for 30 s and was then removed to a high-sided opaque plastic container for a further 30 s, (inter-trial interval, ITI). At the end of the ITI the rat was placed into the pool again, but at a different location and upon release the next trial began. This procedure was repeated until four trials had been completed.
# Normally, the escape latency declines over several days of training from 60 s to around 20 s. A ‘probe trial’ assess the rat's spatial memory for the location of the hidden platform. During this trial the platform was removed from the watermaze and the rat was allowed to search the pool for 60 s before it was removed from the pool. If the treatment improves the rat's memory for the location of the platform, it will spend longer searching the quadrant in which the platform had previously been hidden (NE) than a rat given vehicle treatment.
# Deficits in performance that might be due to drug-induced side-effects (such as blurred vision or motoric deficits resulting in an impaired ability to swim) were assessed using cued recall. In this procedure, the platform was also placed in the NE quadrant, but was raised 3 cm above the water level and thus visible to the rat. If the treatment has no effects on the mean escape latencies to the visible platform, then any group differences in mean escape latencies to an invisible platform can be attributed to an effect on cognitive process.
# Six days following the probe trial, during which time the rats were not expose to the watermaze or administered FG 8094, the rats were again tested with the platform submerged in the NE quadrant using the acquisition protocol.
# Reversal training was identical to the acquisition phase of the experiment with the exception that the platform was submerged in the middle of the SW quadrant.
# rats = assay: Watermaze experiment with SC pellet of FG 8094
# α6β3γ2 = biological target: T1, α6β3γ2 (Homo sapiens, UniProt P18507+Q16445); assay: Radioligand binding, membranes of stably transfected cells
# T1 construct: expressed in transfected cells
# T1 sequence (Q16445 20-453): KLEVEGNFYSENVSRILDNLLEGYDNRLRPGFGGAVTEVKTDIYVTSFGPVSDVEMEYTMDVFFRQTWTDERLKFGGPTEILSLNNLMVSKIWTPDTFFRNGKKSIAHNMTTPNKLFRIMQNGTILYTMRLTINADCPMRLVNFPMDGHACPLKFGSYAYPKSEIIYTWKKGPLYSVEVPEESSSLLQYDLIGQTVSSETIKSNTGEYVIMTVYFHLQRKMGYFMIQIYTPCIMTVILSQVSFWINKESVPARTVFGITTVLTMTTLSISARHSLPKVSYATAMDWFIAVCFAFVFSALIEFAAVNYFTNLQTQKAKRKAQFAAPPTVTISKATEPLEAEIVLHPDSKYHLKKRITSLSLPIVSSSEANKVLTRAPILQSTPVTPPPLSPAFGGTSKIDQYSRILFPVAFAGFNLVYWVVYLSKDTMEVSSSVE
# T1 sequence (P28472 26-473 partner): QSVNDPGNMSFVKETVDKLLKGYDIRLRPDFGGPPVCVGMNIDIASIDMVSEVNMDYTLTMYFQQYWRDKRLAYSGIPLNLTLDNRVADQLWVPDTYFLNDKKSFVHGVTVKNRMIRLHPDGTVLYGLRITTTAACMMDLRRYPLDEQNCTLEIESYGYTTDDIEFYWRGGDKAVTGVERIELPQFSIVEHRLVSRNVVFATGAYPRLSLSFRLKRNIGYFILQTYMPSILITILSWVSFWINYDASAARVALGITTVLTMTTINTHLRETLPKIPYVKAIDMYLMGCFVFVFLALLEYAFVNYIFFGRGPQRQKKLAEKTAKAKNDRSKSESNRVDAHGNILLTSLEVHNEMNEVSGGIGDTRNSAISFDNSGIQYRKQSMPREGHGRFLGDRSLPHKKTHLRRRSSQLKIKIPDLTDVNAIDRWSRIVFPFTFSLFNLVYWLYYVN
# T1 sequence (P18507 40-467 isoform P18507-1 limits assumed): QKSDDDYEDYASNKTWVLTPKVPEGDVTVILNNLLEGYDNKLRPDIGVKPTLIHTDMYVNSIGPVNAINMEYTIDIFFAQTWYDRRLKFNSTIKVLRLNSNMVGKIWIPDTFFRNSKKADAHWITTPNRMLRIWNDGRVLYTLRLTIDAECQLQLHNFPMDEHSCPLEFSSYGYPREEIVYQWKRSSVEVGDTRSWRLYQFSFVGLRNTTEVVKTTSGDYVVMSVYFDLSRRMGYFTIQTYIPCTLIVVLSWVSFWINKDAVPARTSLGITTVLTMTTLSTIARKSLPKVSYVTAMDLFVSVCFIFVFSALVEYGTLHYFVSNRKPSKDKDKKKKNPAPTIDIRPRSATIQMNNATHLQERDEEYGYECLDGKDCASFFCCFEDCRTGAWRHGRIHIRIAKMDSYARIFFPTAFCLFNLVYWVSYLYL
# Forebrain (all α) = assay: In vivo [3H]Ro 15-1788 binding, forebrain; parameters: species or system mouse; settings: 30 min, mean±SEM, relative to vehicle
# Protocol: The in vivo binding of [^3H]Ro 15-1788 to mouse brain was performed essentially as described by Goeders and Kuhar (1985). Male Swiss-Webster mice received a 0.9% NaCl solution containing 50 mCi/kg of [^3H]Ro 15-1788 (0.05 ml/10 g of body weight) via the tail vein. […] Each mouse brain was then rapidly removed, homogenised in 5.0 ml of 50 mM Tris HCl, 5.0 mM EDTA, pH 7.4 at 4° C. using an ultra-turrax homogeniser for 10 s at setting 5. In a separate series of experiments different brain regions, selected for their preferential expression of particular GABA subtypes were also examined. Binding of [^3H]Ro 15-1788 to cerebellum is almost exclusively α1-like (Quirk et al, 1994), whereas binding to spinal cord is indicative of binding to receptors containing α2 or α3-subtypes, α1, α4 and α5 are rare or absent in this region (Wisden et al, 1992). Brains were rapidly dissected into forebrain and cerebellum and the spinal cord was also removed. […] Volumes ([…]) of homogenate were filtered rapidly through GF/B filters, washed with 2×5.0 ml volumes of ice-cold buffer and the residual radioactivity was counted by liquid scintillation spectroscopy. […]
# α1β3γ2 = α1β3γ2 (Homo sapiens, UniProt P14867+P18507); assay: biochemical
# α1β3γ2, sequence (P14867 28-456): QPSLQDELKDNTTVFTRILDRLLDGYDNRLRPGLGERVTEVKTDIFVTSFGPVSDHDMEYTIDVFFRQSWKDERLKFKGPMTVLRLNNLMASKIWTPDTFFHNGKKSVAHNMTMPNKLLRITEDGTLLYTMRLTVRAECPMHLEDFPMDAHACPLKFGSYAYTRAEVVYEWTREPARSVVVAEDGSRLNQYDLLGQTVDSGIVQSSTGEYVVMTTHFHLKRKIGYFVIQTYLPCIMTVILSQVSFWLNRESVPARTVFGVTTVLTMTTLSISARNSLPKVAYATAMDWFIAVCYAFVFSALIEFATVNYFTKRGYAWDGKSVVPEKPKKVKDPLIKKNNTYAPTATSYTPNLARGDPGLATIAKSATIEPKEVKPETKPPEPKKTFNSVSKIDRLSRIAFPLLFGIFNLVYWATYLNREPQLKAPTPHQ
# α1β3γ2, sequence (P28472 26-473 partner): as the sequence (P28472 26-473 partner) above
# α1β3γ2, sequence (P18507 40-467 isoform P18507-1 limits assumed): as the sequence (P18507 40-467 isoform P18507-1 limits assumed) above
# Protocol: Radioligand binding studies were carried out using membranes prepared from cells stably transfected with the following subunit combinations:—α1β3γ2, α2β3γ2, α3β3γ2, α5β3γ2, α6β3γ2. Incubations were carried out using 20-100 mg of membrane protein in a total volume of 0.5 ml in 10 mM Tris-HCl, 1 mM EDTA pH 7.4 for one hour at room temperature prior to termination through Whatman GF/C filters followed by 3×3 ml washes with 5 mM Tris-HCl pH 7.5 and scintillation counting. […] Ki values were calculated according to the Cheng-Prussof equation.
# Ki values were calculated according to the Cheng-Prussof equation. Data shown are mean±SEM values for 3-6 determinations.
# α2β3γ2 = biological target: T2, α2β3γ2 (Homo sapiens, UniProt P18507+P47869); assay: Radioligand binding, membranes of stably transfected cells
# T2 construct: expressed in transfected cells
# T2 sequence (P47869 29-451): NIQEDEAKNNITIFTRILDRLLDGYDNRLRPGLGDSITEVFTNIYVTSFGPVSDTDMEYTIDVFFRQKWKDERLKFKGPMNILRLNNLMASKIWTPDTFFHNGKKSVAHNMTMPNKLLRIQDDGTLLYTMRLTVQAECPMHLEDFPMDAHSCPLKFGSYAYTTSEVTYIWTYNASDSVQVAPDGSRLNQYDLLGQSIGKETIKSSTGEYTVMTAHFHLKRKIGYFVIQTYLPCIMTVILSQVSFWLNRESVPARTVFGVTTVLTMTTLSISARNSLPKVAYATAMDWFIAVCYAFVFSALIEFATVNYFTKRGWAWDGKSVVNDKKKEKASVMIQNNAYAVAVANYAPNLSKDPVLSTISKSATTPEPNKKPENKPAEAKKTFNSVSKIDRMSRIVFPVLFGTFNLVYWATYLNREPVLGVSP
# T2 sequence (P28472 26-473 partner): as the sequence (P28472 26-473 partner) above
# T2 sequence (P18507 40-467 isoform P18507-1 limits assumed): as the sequence (P18507 40-467 isoform P18507-1 limits assumed) above
# GABAA receptors = assay: In vivo [3H]Ro 15-1788 binding in whole mouse brain
# Protocol: The in vivo binding of [^3H]Ro 15-1788 to mouse brain was performed essentially as described by Goeders and Kuhar (1985). Male Swiss-Webster mice received a 0.9% NaCl solution containing 50 mCi/kg of [^3H]Ro 15-1788 (0.05 ml/10 g of body weight) via the tail vein. […] Each mouse brain was then rapidly removed, homogenised in 5.0 ml of 50 mM Tris HCl, 5.0 mM EDTA, pH 7.4 at 4° C. using an ultra-turrax homogeniser for 10 s at setting 5. In a separate series of experiments different brain regions, selected for their preferential expression of particular GABA subtypes were also examined. Binding of [^3H]Ro 15-1788 to cerebellum is almost exclusively α1-like (Quirk et al, 1994), whereas binding to spinal cord is indicative of binding to receptors containing α2 or α3-subtypes, α1, α4 and α5 are rare or absent in this region (Wisden et al, 1992). Brains were rapidly dissected into forebrain and cerebellum and the spinal cord was also removed. […] Volumes ([…]) of homogenate were filtered rapidly through GF/B filters, washed with 2×5.0 ml volumes of ice-cold buffer and the residual radioactivity was counted by liquid scintillation spectroscopy.
structure (smiles),measurement,setting,value
"CCOC(=O)c1ncn2c1[C@@H]1CCCN1C(=O)c1cc(OC)ccc1-2 [FG 8094, 9H-imidazo[1,5-a]pyrrolo[2,1-C][1,4]benzodiazepine-1-carboxylic acid, 11, 12, 13, 13a-tetrahydro-7-methoxy-9-oxo-, ethyl ester, (S)-(9CI)]","cued recall, mean escape latency to the visible platform","Male PVG hooded rats; 0.1, 0.3, 1.0 mg/kg IP",no significant effect of dose
same,"probe trial, time spent searching the platform quadrant","Male PVG hooded rats; 0.1, 0.3, 1.0 mg/kg IP",no difference in the amount of time the control and drug groups spent searching the quadrant
same,"cued recall, mean path length","Male PVG hooded rats; 0.1, 0.3, 1.0 mg/kg IP, post hoc Newman-Keuls",vehicle group traversed a significantly longer path than all the groups given FG 8094
same,"mean escape latencies, acquisition trials","Male PVG hooded rats; 0.3 and 1.0 mg/kg IP, nine day training","appear to be shorter than the vehicle control group or the 0.1 mg/kg group, the observation was not confirmed by Newman Keul post hoc tests"
same,mean swimming speed during escape to the hidden platform,"Male PVG hooded rats; acquisition trials, 0.1, 0.3, 1.0 mg/kg IP",no significant effect of dose
same,"reversal learning, mean escape latency","Male PVG hooded rats; platform moved to Southwest quadrant, first reversal day, p<0.05",mean escape latency of the vehicle group was significantly longer than all of the FG 8094 groups
same,"recall test, mean escape latency","Male PVG hooded rats; six days after probe trial, 0.1, 0.3, 1.0 mg/kg, p<0.05",mean escape latency of the vehicle group was longer than any of the FG 8094 groups
same,convulsions or sedation,rats; SC pellet,did not cause convulsions or sedation
same,watermaze performance,"rats; pellet implanted SC 2 hrs before, training on one day",improved performance
same,Ki,α6β3γ2,0.0832 ± 0.0045 µM
same,"percentage inhibition of in vivo [3H]Ro 15-1788 binding, forebrain",Forebrain (all α); 1 mg/kg ip,8.3 ± 3.2
same,"percentage inhibition of in vivo [3H]Ro 15-1788 binding, forebrain",Forebrain (all α); 10 mg/kg ip,53.3 ± 4.2
same,Ki,α1β3γ2,0.0485 ± 0.006 µM
same,Ki,α2β3γ2,0.0274 ± 0.0025 µM
same,"displacement of [3H]Ro 15-1788 binding, whole brain","GABAA receptors; 10.0 mg/kg intraperitoneally, p<0.05",significantly displaced
same,"displacement of specific [3H]Ro 15-1788 binding, whole brain",GABAA receptors; intraperitoneally at doses of up to 3.0 mg/kg,did not significantly displace
